Consider 29 molecules from patent EP4741383A1, “COMPOUND AND USE THEREOF AS ANTI-CANCER DRUG” (Tyligand Bioscience (Shanghai) Limited, priority 2023, dated 2025).

The first test concerns MeWo. Put plainly: CellTiter-Glo cell proliferation inhibition, MeWo. It counts as cell-based, human. Particulars: Homo sapiens, MeWo, 72 h, MeWo cells, CellTiter-Glo. The method, then:
(§1) In this study, the CellTiter-Glo® Luminescent Cell Viability Assay kit from Promega was used to evaluate the inhibitory effects of the disclosed compounds on the proliferation of cell lines KYSE520 (a human esophageal squamous cell carcinoma cell line dependent on SHP2 for growth), MeWo (a human malignant melanoma cell line), and MV4-11 (an RTK-mutant human acute monocytic leukemia cell line).
Using essentially the same experimental materials, MeWo cells (ATCC, catalog #HTB-65) were treated similarly: when thawing the cells, the cryovial was rapidly shaken in a 37 °C water bath to thaw the cells within 1 minute. The thawed cell suspension was mixed with MEM/EBSS culture medium containing 10% FBS (HyClone, catalog #SH30024.01), centrifuged at 1000 rpm for 5 minutes, and the supernatant was discarded. The cell pellet was resuspended in 5 mL of complete culture medium (MEM/EBSS medium containing 10% FBS), placed in a cell culture flask with 25 cm^2 of bottom area, and cultured in a cell culture incubator at 37 °C, 95% humidity, and 5% CO2. Cell passaging was performed when the cell confluence reached approximately 80%. During cell passaging, the old culture medium was discarded, the cells were washed once with DPBS, and 1 mL of trypsin was added to digest the cells. When the cells dispersed into single cells and detached from the bottom of the cell culture flask, 3 mL of new complete culture medium was added to stop the digestion. After thoroughly mixing the cell suspension, 1/5 of the cell suspension was retained, 5 mL of new complete culture medium was added, and after thorough mixing, the cells were placed in a cell culture flask for further culture. Cell plating was performed when the cell confluence again reached approximately 80%. During cell plating, following the cell passaging method, 1/5 of the cell suspension was retained for further culture, and the remaining 4/5 of the cell suspension was placed in a 15 mL centrifuge tube. Cell viability was determined using the trypan blue exclusion method to ensure that cell viability was above 90%. A cell suspension with a density of 2.22 × 10^4 cells/mL was prepared using MEM/EBSS culture medium containing 5% FBS. 90 µL of the cell suspension was added to a 96-well cell culture plate, resulting in a cell density of 2000 viable cells/well in the cell culture plate. A control group without cells and without compounds, containing only complete culture medium (i.e., culture medium control), and a control group without compounds but containing cells (i.e., cell control) were set up. The cell plate was cultured overnight in the cell culture incubator. First, a 10 mM stock solution of the compound (Example compound and positive control compound 11a-1) in DMSO was serially diluted with DMSO at a 3-fold dilution, down to the 9th concentration. A 10th concentration containing only DMSO (without the compound) was also prepared as a control. Then, the DMSO solutions containing different concentrations of the compound were diluted 100-fold with complete culture medium, resulting in a 1% DMSO concentration in each solution. Finally, 10 µL of each solution was added to the corresponding wells of the cell culture plate, resulting in a starting compound concentration of 10 µM, with a 3-fold dilution between adjacent concentrations, and a 0.1% DMSO concentration in the cell culture plate. The cell plates were then incubated in a cell culture incubator for 72 hours.
(§2) For endpoint detection, CellTiter-Glo reagent (Promega, catalog number #G7573, CellTiter-Glo® Luminescent Cell Viability Assay Kit) was melt and each cell plate was moved to room temperature for equilibration for 30 minutes. 75 µL (KYSE520 cells) or 50 µL (MeWo cells and MV 4-11 cells) of CellTiter-Glo was added to each well of the corresponding cell plate. The plates were shaken on a track-mounted shaker for 2 minutes to fully lyse the cells. The cell plates were kept at room temperature for 8 minutes to stabilize the luminescence signal. […]
(In general: In ATP-based viability assays light output follows the ATP content of the culture.)
Turning to `O=C(Nc1ccc(-c2cc3cc(F)c(-c4nnn[nH]4)cc3n2C2CCC2)cc1)C(=O)Nc1ccc(N2CCC3(CCOCC3)CC2)cc1` [Example 76], the IC50 (commonly the concentration at which inhibition is half-maximal) was 0.041 µM. Same read-out and setting: with `CC1(n2c(-c3ccc(NC(=O)C(=O)Nc4ccc(N5CCC6(CC5)CC(CO)C6)cc4)cc3)cc3cc(F)c(-c4nnn[nH]4)cc32)CCC1` [Example 97] the figure was 0.11 µM; with `O=C(Nc1ccc(-c2ccsc2)cc1)C(=O)Nc1ccc(-c2cc3cc(F)c(-c4nnn[nH]4)nc3n2C2CCC2)cc1` [Example 132], 0.291 µM; with `Cn1cc(-c2ccc(NC(=O)C(=O)Nc3ccc(-c4cc5cc(F)c(-c6nnc(C(F)(F)F)[nH]6)cc5n4C4CCC4)cc3)cc2)cn1` [Example 124], 1.55 µM. The same measure, in the same setting: with `O=C(Nc1ccc(-c2ccsc2)cc1)C(=O)Nc1ccc(-c2cc3ccc(-c4nnn[nH]4)cc3n2C2CCC2)cc1` [Example 122] the figure was 0.409 µM. On the same count and under the same terms, the value for `Cn1cc(-c2ccc(NC(=O)C(=O)Nc3ccc(-c4cc5cc(F)c(-c6noc(=O)[nH]6)cc5n4C4CCC4)cc3)cc2)cn1` [Example 123] was 0.118 µM; that for `O=C(Nc1ccc(-c2cc3cc(F)c(-c4nnn[nH]4)cc3n2C2CC2)cc1)C(=O)Nc1ccc(N2CCC3(CCOC3)CC2)cc1` [Example 69] was 0.093 µM; that for `O=C(Nc1ccc(-c2ccsc2)cc1)C(=O)Nc1ccc(-c2sc3cc(F)c(-c4nnn[nH]4)cc3c2C2CCC2)cc1` [Example 133] was 0.686 µM. `O=C(Nc1ccc(-c2ccsc2)cc1)C(=O)Nc1ccc(-c2oc3cc(F)c(-c4nnn[nH]4)cc3c2C2CCC2)cc1` [Example 130] showed a half-inhibitory concentration (IC50) of 0.162 µM.

Staying with this test, now noted: Homo sapiens; MeWo cells, 72 hours, CellTiter-Glo.
Take `O=C(Nc1ccc(-c2oc3cc(F)c(-c4nnn[nH]4)cc3c2C2CCC2)cc1)C(=O)Nc1ccc(N2CCC3(CCOC3)CC2)cc1` [Example 125]: the IC50 amounted to 0.764 µM.

The molecule `O=C(Nc1ccc(-c2ccsc2)cc1)C(=O)Nc1ccc(-c2cc3cc(F)c(-c4nnn[nH]4)c(F)c3n2C2CCC2)cc1` [Example 134] displayed an IC50 of 0.27 µM. On the same count and under the same terms, with `O=C(Nc1ccc(-c2ccsc2)cc1)C(=O)Nc1ccc(-c2cc3ccc(-c4nnn[nH]4)nc3n2C2CCC2)cc1` [Example 129] the figure was 0.176 µM.

The test system of a further test is MV4-11. Put plainly: CellTiter-Glo cell proliferation inhibition, MV4-11. It counts as cell-based, human. Particulars: Homo sapiens; MV4-11 cells, 72 hours, CellTiter-Glo; read-out: IC50 (µM) M V4-11.
Excerpt: as §1
Using essentially the same experimental materials, MV4-11 cells (Nanjing Cobio Biotechnology Co., Ltd., Catalog #CBP60522) were treated similarly: when thawing the cells, the cryovial was rapidly shaken in a 37 °C water bath to thaw within 1 minute. The thawed cell suspension was mixed with IMDM culture medium containing 10% FBS (HyClone, Catalog #SH30228.01), centrifuged at 1000 rpm for 7 minutes, and the supernatant was discarded. The cell pellet was resuspended in 5 mL of complete culture medium (IMDM medium containing 10% FBS) placed in a cell culture flask with 25 cm^2 of bottom area, and cultured in a cell culture incubator at 37 °C, 95% humidity, and 5% CO2. Cell passaging was performed when the cell density reached approximately 10^6 cells/mL. During cell passaging, the old cell suspension was thoroughly mixed, 1/5 of the cell suspension was retained, and 4 mL of new complete culture medium was added. After thorough mixing, the cells were placed back in the cell culture incubator for further culture. Cell plating was performed when the cell density again reached approximately 10^6 cells/mL. During cell plating, following the cell passage method, 1/5 of the cell suspension was retained for continued culture, and the remaining 4/5 of the cell suspension was placed in a 15 mL centrifuge tube. Cell viability was determined using the trypan blue exclusion method to ensure that cell viability was above 90%. A cell suspension with a density of 1.11 × 10^5 viable cells/mL was prepared using complete culture medium. 90 µL of the cell suspension was added to a 96-well cell culture plate, resulting in a cell density of 10000 viable cells/well. A control group without cells and without compounds, containing only complete culture medium (i.e., culture medium control) and a control group without compounds but containing cells (i.e., cell control) were set up. The cell plate was incubated overnight in the cell culture incubator. First, a 10 mM stock solution of the compound (Example compound and positive control compound 11a-1) in DMSO was serially diluted with DMSO at a 3-fold dilution, down to the 9th concentrations. A 10th concentration containing only DMSO (without the compound) was also prepared as a control. Then, the DMSO solutions containing different concentrations of the compound were diluted 100-fold with complete culture medium, resulting in a DMSO concentration of 1% in each solution. Finally, 10 µL of each solution was added to the corresponding wells of a cell culture plate, resulting in an initial compound concentration of 10 µM, with a 3-fold dilution between adjacent concentrations, and a DMSO concentration of 0.1% in the cell culture plate. The cell plate was then incubated in a cell culture incubator for 72 hours.
as §2, with “signal. A multi-mode microplate reader (PerkinEImer, Envision 2105 Multimode plate Read) was used to full-wavelength scan the luminescence value of each well.” for “signal.”
As for `O=C(Nc1ccc(-c2cc3cc(F)c(-c4nnn[nH]4)cc3n2C2CCC2)cc1)C(=O)Nc1ccc(N2CCC3(CCOCC3)CC2)cc1` [Example 76], the IC50 was 0.173 µM.

In the case of `CC1(n2c(-c3ccc(NC(=O)C(=O)Nc4ccc(N5CCC6(CC5)CC(CO)C6)cc4)cc3)cc3cc(F)c(-c4nnn[nH]4)cc32)CCC1` [Example 97], the IC50 was 0.305 µM. The same measure, in the same setting: with `CC1(n2c(-c3ccc(NC(=O)C(=O)Nc4ccc(N5CCC(CCO)CC5)cc4)cc3)cc3cc(F)c(-c4nnn[nH]4)cc32)CCC1` [Example 26] the figure was 0.129 µM. On the same count and under the same terms, with `CC1(n2c(-c3ccc(NC(=O)C(=O)Nc4ccc(N5CCC6(CCC(O)C6)CC5)cc4)cc3)cc3cc(F)c(-c4nnn[nH]4)cc32)CCC1` (stereo not shown) [Example 101] the figure was 0.329 µM; with `O=C(Nc1ccc(-c2cc3cc(F)c(-c4nnn[nH]4)cc3n2C2CCC2)cc1)C(=O)Nc1ccc(N2CCC3(CCCOC3)CC2)cc1` [Example 74], 0.129 µM. The same measure, in the same setting: the value for `O=C(Nc1ccc(-c2cc3cc(F)c(-c4nnn[nH]4)cc3n2C2CCC2)cc1)C(=O)Nc1ccc(N2CCC3(CCCOC3)C2)cc1` (stereo not shown) [Example 62] was 0.202 µM; that for `COC1CC(n2c(-c3ccc(NC(=O)C(=O)Nc4ccc(N5CCC6(CCC(O)C6)CC5)cc4)cc3)cc3cc(F)c(-c4nnn[nH]4)cc32)C1` (stereo not shown) [Example 103] was 0.124 µM. In the case of `CC1(CO)CCN(c2ccc(NC(=O)C(=O)Nc3ccc(-c4cc5cc(F)c(-c6nnn[nH]6)cc5n4C4CCC4)cc3)cc2)C1` (stereo not shown) [Example 16], the IC50 came out at 0.137 µM.

As to `O=C(Nc1ccc(-c2cc3cc(F)c(-c4nnn[nH]4)cc3n2C2CCC2)cc1)C(=O)Nc1ccc(N2CC3(CCCOC3)C2)cc1` [Example 55], the IC50 amounted to 0.177 µM. Same read-out and setting: with `CC1(O)CC2(CCN(c3ccc(NC(=O)C(=O)Nc4ccc(-c5cc6cc(F)c(-c7nnn[nH]7)cc6n5C5(C)CCC5)cc4)cc3)CC2)C1` [Example 95] the figure was 0.168 µM; with `O=C(Nc1ccc(-c2cc3cc(F)c(-c4nnn[nH]4)cc3n2C2CCC2)cc1)C(=O)Nc1ccc(N2CCC3(COC3)C2)cc1` [Example 59], 0.213 µM. Still for that read-out and setting: the value for `CC(O)C1CCN(c2ccc(NC(=O)C(=O)Nc3ccc(-c4cc5cc(F)c(-c6nnn[nH]6)cc5n4C4CCC4)cc3)cc2)CC1` (stereo not shown) [Example 29] was 0.13 µM. The same measure, in the same setting: the value for `CC1(n2c(-c3ccc(NC(=O)C(=O)Nc4ccc(N5CCC6(CCC(O)CC6)CC5)cc4)cc3)cc3cc(F)c(-c4nnn[nH]4)cc32)CCC1` [Example 109] was 0.243 µM; that for `CC1(O)CCC2(CC1)CN(c1ccc(NC(=O)C(=O)Nc3ccc(-c4cc5cc(F)c(-c6nnn[nH]6)cc5n4C4CCC4)cc3)cc1)C2` [Example 83] was 0.133 µM; that for `N#CCc1cc(-c2ccc(NC(=O)C(=O)Nc3ccc(-c4cc5cc(F)c(-c6nnn[nH]6)cc5n4C4CCC4)cc3)cc2)cs1` [Example 2] was 0.216 µM. For `CC1(O)CC2CN(c3ccc(NC(=O)C(=O)Nc4ccc(-c5cc6cc(F)c(-c7nnn[nH]7)cc6n5C5(C)CCC5)cc4)cc3)CC2C1` (stereo not shown) [Example 118], the IC50 came out at 0.131 µM. On the same count and under the same terms, the value for `O=C(Nc1ccc(-c2cc3cc(F)c(-c4nnn[nH]4)cc3n2C2CCC2)cc1)C(=O)Nc1ccc(N2CCC(CCO)C2)cc1` (stereo not shown) [Example 14] was 0.155 µM; that for `CC1(O)CCC2(CCN(c3ccc(NC(=O)C(=O)Nc4ccc(-c5cc6cc(F)c(-c7nnn[nH]7)cc6n5C5(C)CCC5)cc4)cc3)CC2)CC1` [Example 111] was 0.122 µM; that for `CC1(O)CC2CN(c3ccc(NC(=O)C(=O)Nc4ccc(-c5cc6cc(F)c(-c7nnn[nH]7)cc6n5C5CCC5)cc4)cc3)CC2C1` (stereo not shown) [Example 117] was 0.127 µM.
